These results are taken from patent US20250171821A1, “HIF-1 ACTIVATORS AND USES THEREOF” (Ramot at Tel-Aviv University Ltd., priority 2022, published 2025).

The experiment deals with human gingival fibroblasts cells (HGF). The experiment is described as follows: Collagen-I immunofluorescence in human fibroblasts treated with ML228. It is filed as cell-based. Particulars: 48 hours. The source says: Human fibroblasts were isolated from fragments of healthy masticatory oral mucosa (from the posterior hard palate) collected during periodontal surgeries. Informed consent was obtained from all patients. Shallow tissue samples (without submucosa) with a diameter of approximately 2 mm were excised using a #15C scalpel blade. Exclusion criteria for potential tissue donors were smoking, any systemic disease, pregnancy or lactation, or a history of periodontal disease. Cells were separated into connective tissue and epithelium using dispase II (Sigma-Aldrich, Rehovot, Israel) at 2 mg/mL for two hours at 37° C.
Cells were cultured to sub-confluence on a 96-well plate culture plate or on round-glass cover slips in a 24 well plate and incubated with ML228 at 37° C. in 5% CO2 for 24-96 hours. Cells were fixed for 20 minutes with 4% paraformaldehyde in phosphate-buffered saline (PBS), washed 3 times with PBS, blocked with 2% bovine serum albumin diluted in PBS, which contains 0.1% Triton X-100 for 20 minutes. Fixed cells were incubated with 1:200 of rabbit anti-human type I collagen (Abcam, Cambridge, UK) for 1 hour at 25° C. […] Fluorescence readouts were obtained with excitation/emission (ex/em) of 495/519 nanometer (nm; green) and 340/488 nm (blue) (for FIGS. 2B and 2D); or with ex/em of 358/461 nm (blue), 495/519 nm (green) and 652/668 nm (red) (for FIG. 5A).
All images were analyzed with the computer-based image analysis system (Image J) using the Fiji 2 software (National Institute of Health). Equal field areas were selected for analysis and quantification of fluorescence signals. Quantification of fluorescence signal intensity measured by color threshold and normalized against β-tubulin intensity. Total collagen was evaluated by total fluorescence area intensity.
The effect of ML228 (chemical structure thereof is depicted in FIG. 1), a known activator of HIF, on fibroblasts and osteoblasts was analyzed. […] Collagen-I levels were evaluated by immunohistochemistry via Collagen-I antibody and a fluorescently-labeled secondary antibody. […]

Take `c1ccc(-c2ccc(CNc3nc(-c4ccccn4)nnc3-c3ccccc3)cc2)cc1` [ML228, N-([1,1′-Biphenyl]-4-ylmethyl)-6-phenyl-3-(2-pyridinyl)-1,2,4-triazin-5-amine]: the “Collagen-I levels compared to baseline of non-treated cells” value (ML228 above 312 nM, normalized to cell number (DAPI), FIG. 5C) is reported as “more than two-fold higher”. Besides, under “ML228 above 10 μM (10 or 20 μM), HGF cells”, the “Collagen-I levels at higher concentrations” value was “gradually decrease”. For the same molecule, the “concentration at which maximum collagen levels were observed” value (fibroblasts) was 5 µM.
